Test results taken from patent publication US20240366571A1, “MODULATORS OF SK4 POTASSIUM CHANNEL AND USES THEREOF” (Ramot at Tel-Aviv University Ltd., priority 2022, published 2024).
“Also recorded” adds a separate entry of the source.

Legend:
human SK1 = biological target: T1, human SK1 (Homo sapiens, UniProt Q92952); assay: Whole-cell patch-clamp of SK1 currents in CHO cells; assay type: cell-based; conditions: 20 μM
T1 construct: expressed in transfected cells; host or cells: CHO cells
Method: Constructs: For CHO cell transfection, the following were cloned: human SK1, rat SK2, human SK3, and rat calmodulin into the pcDNA3 vector, human SK4 into pEGFP-C1 vector, and PIP4,5-kinase into an IRES-dsRed plasmid. The mutations were introduced using the PCR-based QuikChange™ site-directed mutagenesis (Stratagene®) and were verified by full sequencing of the entire plasmid vector.
Cell Culture and Transfection: Chinese hamster ovary (CHO) cells were grown in Dulbecco's modified Eagle's medium supplemented with 2 millimolar (mM) glutamine, 10% fetal calf serum, and antibiotics. In brief, 40,000 cells seeded on poly-L-lysine-coated glass coverslips (13 millimeter (mm) in diameter) in a 24-multiwell plate were transfected with 0.5 microgram (μg) pEGFP-SK4/0.5 μg mutant SK4, 1.2 μg dsRed-PIP4,5-kinase or with 1 μg SK1/SK2/SK3 together with pIRES-CD8 (0.3 μg) as a marker for transfection. Transfection was performed using TransIT-LT1 Transfection Reagent (Mirus Bio) according to the manufacturer's protocol. For electrophysiology, transfected cells were visualized approximately 40 hours after transfection with a Zeiss Axiovert 35 inverted florescence microscope.
Whole-cell patch-clamp recording: Voltage-clamp recordings were performed using the whole-cell configuration of the patch-clamp technique. Signals were amplified using an […] patch-clamp amplifier (Molecular Devices), sampled at 5 kHz and filtered at 2.4 kHz via a four pole Bessel low pass filter. Data were acquired using pClamp™ 10.5 software in conjunction with an Axon™ DigiData® 1440A interface (Molecular Devices). The patch pipettes were pulled from borosilicate glass (Harvard Apparatus) with a resistance of 3-5 megaohms (MΩ). The intracellular pipette solution contained 130 mM KCl, 5 mM EGTA, 10 mM HEPES, pH 7.3 (adjusted with KOH), and CaCl2 calculated for a final concentration of 1 μM free-Ca^2+, by MAXCHELATOR (WEBMAXC STANDARD) software, with sucrose added to adjust osmolarity to 290 mosM. […]

isolated rat hearts = assay: Langendorff perfused isolated rat hearts: electrophysiology and hemodynamics; conditions: 10 μM
Method: Animals: Adult male Sprague-Dawley rats (n=56, 200-250 grams) and Guinea pigs (n=19, 400-700 grams) obtained from Envigo Laboratories (Jerusalem, Israel) were bred and grown in Ben-Gurion University of the Negev, Israel. Experiments in rats and guinea pigs were approved by the institutional ethics committee of Ben-Gurion University of the Negev, Israel (Protocol No. IL-24-05-2020(D) and were carried out in strict accordance with the Guide for the Care and Use of Laboratory Animals of the National Institutes of Health. The animals were kept under standardized conditions: 12:12 light: dark cycles at 20-24° C. and 30-70% relative humidity.
Perfused isolated hearts—Langendorff method: The isolated heart experiment setup was performed as described in Etzion et al., Am J Physiol Heart Circ Physiol (2008) 295, H1460-1469; and Mor et al., J Pharmacol Exp Ther (2013) 344, 59-67.]. Briefly, each animal was anesthetized with 2% isoflurane and an intraperitoneal (IP) injection of pentobarbital (60 mg/kg), followed by IP injection of Heparin (1000 U/kg). The heart was rapidly excised and placed into ice-cold Tyrode's buffer solution (consisted of 140 mM NaCl, 5.4 mM KCl, 0.5 mM MgCl2, 2.5 mM CaCl2, 0.39 mM NaH2PO4, 10 mM HEPES and 11 mM glucose, and titrated to pH 7.4 with NaOH). The aorta was cannulated and connected to a pre-heated (37° C.) and oxygenated perfusion system with Tyrode's solution while perfusion pressure was maintained at about 70 mmHg throughout the experiment. Prior to the experiment, the heart was left in Tyrode's solution to stabilize for 20 minutes for hemodynamic measurements, the left atrial appendage was excised, and a collapsed latex balloon was inserted into the left ventricle (LV) through the mitral valve. Once positioned, the balloon was filled with double distilled water reaching an end-diastolic pressure of 10-15 mmHg. Coronary perfusion pressure and LV pressure were recorded by a pressure amplifier (ETH-256C amplifier and B-100 probes, iWorx, NH, USA). Electrophysiological signals were recorded from the high right atrium (HRA) via a miniature quadripolar hook electrode (for simultaneous pacing and recording) and from the LV via a bipolar hook electrode. Electrical signals were filtered (1-2 kHz) and recorded by two voltage amplifiers (Model 3000, A-M Systems, Carlsberg, WA, USA). Signals were interfaced with a PC using an A/D converter (PCI-6024E, National Instruments, Austin TX, USA) and a custom-designed program developed with LabVIEW programing language (National Instruments, Austin, TX, USA) to control signal acquisition, data saving and off-line analysis. Measured physiological parameters during the experiment included perfusion flow (ml/minute) as a marker for coronary perfusion pressure, LV developed pressure, dP/dt±(representing the rate of rise of left ventricular pressure during isovolumetric contraction as a marker for LV contractility), heart rate, PR, and RR intervals. Tram-34 and BA6b9 were applied for a 20-minutes incubation period and physiological parameters were recorded.
Effective refractory period measurements: Using both custom-made quadripolar electrode inserted on the HRA and two bipolar electrodes (recording and pacing) on the LV, allowed measurement of the effective refractory period (ERP) at the atrial level (atrial effective refractory period, AERP), atrioventricular level (AVERP), and ventricular level (VERP). For ERP measurement, a programmed S1S2 stimulation protocol was performed using double diastolic threshold intensity. The protocol consisted of ten S1-S2 intervals of 150 milliseconds (ms) followed by an S1-S2 interval that was reduced by 1 ms each time, until pacing capture failed three consecutive times. AERP, AVERP, and VERP were measured and recorded prior and after exposure to the used inhibitor, either Tram-34 or BA6b9.

SK1 activity in comparison with control (human SK1): 118%
SK1 drug-to-control current ratio (human SK1): 1.18
SMILES: CCCCCCCn1c(=O)oc2ccccc21 [BA6b9, 3-heptylbenzo[d]oxazol-2(3H)-one]
effect on SK1 currents (representative trace) (human SK1): nearly nullified effect; also recorded: did not lead to modulation
AERP (effect) (isolated rat hearts): prolonged
AVERP (effect) (isolated rat hearts): prolonged
VERP (effect) (isolated rat hearts): did not change
coronary flow (perfusion flow velocity) (isolated rat hearts): minimal effect
left ventricular filling pressure (developed pressure) (isolated rat hearts): reduced
maximal pressure change in left ventricular contractility (dP/dt max) (isolated rat hearts): does not effect it
minimal pressure change in left ventricular contractility (dP/dt min) (isolated rat hearts): does not effect it
AERP (isolated rat hearts; from 56 ms before compound): 63 ms
PR interval (isolated rat hearts; from 56 ms before compound): 68 ms
AVERP (isolated rat hearts; from 84 ms before compound): 89 ms
heart rate (isolated rat hearts; from 228 bpm before compound): 196 bpm
